Laboratory results as given in patent publication US4027016A, “Everninomicin antibacterial derivatives, electrochemical method for their manufacture, method for their use as antibacterial agents, and pharmaceutical compositions useful therefor” (Schering Corporation, priority 1976, dated 1977).
≈ marks a conversion by molar mass, not a printed value. Counter-ions that a name gives are not always drawn. Like-named read-outs stand apart in the source and are kept apart here.

What was measured:
[1] = system: Staphylococcus aureus Strain 209B; assay: Microbiological Activity (in vitro), Staphylococcus aureus Strain 209B; format: cell-based; conditions: STRAIN209B
[2] = system: Staphylococcus aureus Strain Gray; assay: Microbiological Activity (in vitro), Staphylococcus aureus Strain Gray; format: cell-based
[3] = system: Staphylococcus aureus Strain 59N; assay: Microbiological Activity (in vitro), Staphylococcus aureus Strain 59N; format: cell-based; conditions: STRAIN59N
[4] = system: Staphylococcus aureus Strain Ziegler; assay: Microbiological Activity (in vitro), Staphylococcus aureus Strain Ziegler; format: cell-based
[5] = system: Staphylococcus aureus Strain Wood; assay: Microbiological Activity (in vitro), Staphylococcus aureus Strain Wood; format: cell-based
[6] = Peak Serum Levels in Dogs; format: in vivo, dog; conditions: for Peak Serum Levels in Dogs: 10 mg/kg i.m., single dose, agar diffusion assay of serum
Method: In determining peak serum levels, the animal tested (e.g. dog) is given a single dose of 10 mg/kg of the everninomicin D derivative, blood samples are taken periodically, and the serum thereof is assayed for antibacterial activity by an agardiffusion-assay as described by Weinstein et al., Antimicrobial Agents and Chemotherapy, p. 24 (1964).

[7] = system: bacteria; conditions: known compounds, cited from earlier work
[8] = pKa; format: physicochemical
[9] = system: gram-positive bacteria; assay: Antibacterial activity against gram-positive bacteria (in words); format: cell-based; conditions: for antibacterial activity in vitro against gram-positive bacteria: e.g. Staphylococcus aureus, Staph. 11631, Staph. W., Streptococcus pyogenes C, Strep. pyogenes C-203, Bacillus subtilis
[10] = system: bacteria which are resistant to other antibacterial agents; assay: Antibacterial activity against resistant bacteria (in words); format: cell-based; conditions: resistant to penicillin, penicillinase-resistant penicillins, tetracycline, macrolides such as erythromycin, lincomycin
[11] = system: gram-negative bacteria; assay: Antibacterial activity against gram-negative bacteria (in words); format: cell-based; conditions: certain gram-negative bacteria
[12] = system: bacteria; assay: Antibacterial activity, general (in words); conditions: when administered by injection

SMILES: COCC1OC(OC2OCC3OC4(OCC(O)(C(C)OC)C5OCOC54)OC3C2OC)C(OC)C(O)C1OC1OC(C)C(OC)C(OC2CC3(C)OC4(CC(O)C(OC5CC(OC6CC(C)(NO)C(OC)C(C)O6)C(OC(=O)c6c(C)c(Cl)c(O)c(Cl)c6OC)C(C)O5)C(C)O4)OC3C(C)O2)C1O (stereo not shown) [Hydroxylaminoeverninomicin D Sodium salt, reference compound]
- MIC [1]: 0.06 µg/mL
- MIC [2]: 0.06 µg/mL
- MIC [3]: 0.03 µg/mL
- MIC [4]: 0.06 µg/mL
- MIC [5]: 0.06 µg/mL
- Peak Serum Levels in Dogs [6]: 20-30

SMILES: COCC1OC(OC2OCC3OC4(OCC(O)(C(C)OC)C5OCOC54)OC3C2OC)C(OC)C(O)C1OC1OC(C)C(OC)C(OC2OC(C)C3OC4(CC(O)C(OC5CC(O)C(OC(=O)c6c(C)c(Cl)c(O)c(Cl)c6OC)C(C)O5)C(C)O4)OC3(C)C2O)C1O (stereo not shown) [desevernitrose everninomicin B]
- antibacterial activity ([7]; U.S. Pat. No. 3,920,629): having anti-bacterial activity

SMILES: COCC1OC(OC2OCC3OC4(OCC(O)C5OCOC54)OC3C2OC)C(OC)C(O)C1OC1OC(C)C(OC)C(OC2CC3(C)OC4(CC(O)C(OC5CC(O)C(OC(=O)c6c(C)c(Cl)c(O)c(Cl)c6OC)C(C)O5)C(C)O4)OC3C(C)O2)C1O (stereo not shown) [desevernitrose everninomicin C]
- antibacterial activity ([7]; U.S. Pat. No. 3,920,629): having anti-bacterial activity

SMILES: COCC1OC(OC2OCC3OC4(OCC(O)(C(C)OC)C5OCOC54)OC3C2OC)C(OC)C(O)C1OC1OC(C)C(OC)C(OC2CC3(C)OC4(CC(O)C(OC5CC(O)C(OC(=O)c6c(C)c(Cl)c(O)c(Cl)c6OC)C(C)O5)C(C)O4)OC3C(C)O2)C1O (stereo not shown) [desevernitrose everninomicin D]
- pKa [8]: 7.5
- antibacterial activity ([7]; U.S. Pat. No. 3,920,629): having anti-bacterial activity

SMILES: COCC1OC(OC2OCC3OC4(OCC(O)(C(C)OC)C5OCOC54)OC3C2OC)C(OC)C(O)C1OC1OC(C)C(OC)C(OC2OC(C)C3OC4(CC(O)C(OC5CC(OC6CC(C)(O)C(OC)C(C)O6)C(OC(=O)c6c(C)c(Cl)c(O)c(Cl)c6OC)C(C)O5)C(C)O4)OC3(C)C2O)C1O (stereo not shown) [everninomicin B-7]
- inhibiting the growth of gram-positive bacteria [9]: antibacterial activity against gram-positive bacteria
- antibacterial activity in vitro against gram-positive bacteria [9]: narrow spectrum antibacterial activity in vitro against gram-positive bacteria
- antibacterial activity against resistant bacteria [10]: exhibit antibacterial activity against bacteria which are resistant to other antibacterial agents

SMILES: COCC1OC(OC2OCC3OC4(OCC(O)C5OCOC54)OC3C2OC)C(OC)C(O)C1OC1OC(C)C(OC)C(OC2CC3(C)OC4(CC(O)C(OC5CC(OC6CC(C)(O)C(OC)C(C)O6)C(OC(=O)c6c(C)c(Cl)c(O)c(Cl)c6OC)C(C)O5)C(C)O4)OC3C(C)O2)C1O (stereo not shown) [everninomicin C-7]
- inhibiting the growth of gram-positive bacteria [9]: antibacterial activity against gram-positive bacteria
- antibacterial activity in vitro against gram-positive bacteria [9]: narrow spectrum antibacterial activity in vitro against gram-positive bacteria
- antibacterial activity against resistant bacteria [10]: exhibit antibacterial activity against bacteria which are resistant to other antibacterial agents

SMILES: COCC1OC(OC2OCC3OC4(OCC(O)(C(C)OC)C5OCOC54)OC3C2OC)C(OC)C(O)C1OC1OC(C)C(OC)C(OC2CC3(C)OC4(CC(O)C(OC5CC(OC6CC(C)(O)C(OC)C(C)O6)C(OC(=O)c6c(C)c(Cl)c(O)c(Cl)c6OC)C(C)O5)C(C)O4)OC3C(C)O2)C1O [everninomicin D-7]
- MIC [1]: 0.3 µg/mL (≈ 0.199 µM)
- MIC [2]: 0.3 µg/mL (≈ 0.199 µM)
- MIC [3]: 0.075 µg/mL (≈ 0.0497 µM)
- MIC [4]: 0.75 µg/mL (≈ 0.497 µM)
- MIC [5]: 0.75 µg/mL (≈ 0.497 µM)
- Peak Serum Levels in Dogs [6]: 15-60
- absorption and serum levels in the dog ([6]; when administered by injection): rapidly absorbed, producing high serum levels in the dog
- inhibiting the growth of gram-positive bacteria [9]: particularly effective in inhibiting the growth of gram-positive bacteria
- antibacterial activity in vitro against gram-positive bacteria [9]: narrow spectrum antibacterial activity in vitro against gram-positive bacteria
- susceptibility of gram-negative bacteria [11]: certain gram-negative bacteria are also susceptible
- antibacterial activity against resistant bacteria [10]: exhibit antibacterial activity against bacteria which are resistant to other antibacterial agents
- antibacterial activity relative to precursor hydroxylaminoeverninomicin D [12]: antibacterial activity comparable to that of the precursor hydroxylaminoeverninomicin D

SMILES: COCC1OC(OC2OCC3OC4(OCC(O)(C(C)OC)C5OCOC54)OC3C2OC)C(OC)C(O)C1OC1OC(C)C(OC)C(OC2OC(C)C3OC4(CC(O)C(OC5CC(OC6CC(C)(NO)C(OC)C(C)O6)C(OC(=O)c6c(C)c(Cl)c(O)c(Cl)c6OC)C(C)O5)C(C)O4)OC3(C)C2O)C1O (stereo not shown) [hydroxylaminoeverninomicin B]
- antibacterial activity ([7]; U.S. Pat. No. 3,915,956): exhibit antibacterial activity

SMILES: COCC1OC(OC2OCC3OC4(OCC(O)C5OCOC54)OC3C2OC)C(OC)C(O)C1OC1OC(C)C(OC)C(OC2CC3(C)OC4(CC(O)C(OC5CC(OC6CC(C)(NO)C(OC)C(C)O6)C(OC(=O)c6c(C)c(Cl)c(O)c(Cl)c6OC)C(C)O5)C(C)O4)OC3C(C)O2)C1O (stereo not shown) [hydroxylaminoeverninomicin C]
- antibacterial activity ([7]; U.S. Pat. No. 3,915,956): exhibit antibacterial activity

SMILES: COCC1OC(OC2OCC3OC4(OCC(O)(C(C)OC)C5OCOC54)OC3C2OC)C(OC)C(O)C1OC1OC(C)C(OC)C(OC2CC3(C)OC4(CC(O)C(OC5CC(OC6CC(C)(NO)C(OC)C(C)O6)C(OC(=O)c6c(C)c(Cl)c(O)c(Cl)c6OC)C(C)O5)C(C)O4)OC3C(C)O2)C1O (stereo not shown) [hydroxylaminoeverninomicin D]
- antibacterial activity ([7]; U.S. Pat. No. 3,915,956): exhibit antibacterial activity

SMILES: COCC1OC(OC2OCC3OC4(OCC(O)(C(C)OC)C5OCOC54)OC3C2OC)C(OC)C(O)C1OC1OC(C)C(OC)C(OC2OC(C)C3OC4(CC(O)C(OC5CC(OC6CC(C)(N=O)C(OC)C(C)O6)C(OC(=O)c6c(C)c(Cl)c(O)c(Cl)c6OC)C(C)O5)C(C)O4)OC3(C)C2O)C1O (stereo not shown) [nitrosoeverninomicin B]
- antibacterial activity ([7]; U.S. Pat. No. 3,915,956): exhibit antibacterial activity

SMILES: COCC1OC(OC2OCC3OC4(OCC(O)C5OCOC54)OC3C2OC)C(OC)C(O)C1OC1OC(C)C(OC)C(OC2CC3(C)OC4(CC(O)C(OC5CC(OC6CC(C)(N=O)C(OC)C(C)O6)C(OC(=O)c6c(C)c(Cl)c(O)c(Cl)c6OC)C(C)O5)C(C)O4)OC3C(C)O2)C1O (stereo not shown) [nitrosoeverninomicin C]
- antibacterial activity ([7]; U.S. Pat. No. 3,915,956): exhibit antibacterial activity

SMILES: COCC1OC(OC2OCC3OC4(OCC(O)(C(C)OC)C5OCOC54)OC3C2OC)C(OC)C(O)C1OC1OC(C)C(OC)C(OC2CC3(C)OC4(CC(O)C(OC5CC(OC6CC(C)(N=O)C(OC)C(C)O6)C(OC(=O)c6c(C)c(Cl)c(O)c(Cl)c6OC)C(C)O5)C(C)O4)OC3C(C)O2)C1O (stereo not shown) [nitrosoeverninomicin D]
- antibacterial activity ([7]; U.S. Pat. No. 3,915,956): exhibit antibacterial activity
